Experiments:
Format in all cases: in vivo
[1] = tested on: Amaranthus retoflexus (AMARE); assay: Post-emergence Test (glasshouse, percentage damage to the plant); conditions: 1000 g/ha unless otherwise stated, evaluated after 13 days; for Post-emergence Test AMARE, percentage damage to the plant (five-point scale): post-emergence spray; for AMARE, percentage damage caused to the plant (five-point scale): post-emergence
Outline: (§1)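 Seeds sown in standard soil in a glasshouse (24/16 °C day/night, 14 h light, 65% humidity), then sprayed with an aqueous solution of the compound formulated in acetone/water 50:50 with 0.5% Tween 20 at 1000 g/ha unless otherwise stated. Percentage damage was scored after 13 days on a five-point scale (5=81-100%; 1=0-20%).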

[2] = tested on: Echinochloa crus-galli (ECHCG); assay: as above; conditions: 1000 g/ha unless otherwise stated, evaluated after 13 days; for Post-emergence Test ECHCG, percentage damage to the plant (five-point scale): post-emergence spray; for ECHCG, percentage damage caused to the plant (five-point scale): post-emergence
Outline: as §1

[3] = tested on: Ipomoea hederacea (IPOHE); assay: as above; conditions: 1000 g/ha unless otherwise stated, evaluated after 13 days; for Post-emergence Test IPOHE, percentage damage to the plant (five-point scale): post-emergence spray; for IPOHE, percentage damage caused to the plant (five-point scale): post-emergence
Outline: (§2)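 Scored 13 days after spraying as percentage plant damage in five bands (5=81–100%, 4=61–80%, 3=41–60%, 2=21–40%, 1=0–20%). Spray at 1000 g/ha unless stated, in acetone/water 50:50 plus 0.5% Tween 20, onto sown glasshouse pots (24/16 °C, 14 h light, 65% humidity).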

[4] = tested on: Lolium perenne (LOLPE); assay: as above; conditions: post-emergence spray, 1000 g/ha unless otherwise stated, evaluated after 13 days
Outline: as §1

[5] = tested on: Setaria faberi (SETFA); assay: as above; conditions: 1000 g/ha unless otherwise stated, evaluated after 13 days; for Post-emergence Test SETFA, percentage damage to the plant (five-point scale): post-emergence spray; for SETFA, percentage damage caused to the plant (five-point scale): post-emergence
Outline: as §2

[6] = tested on: Amaranthus retoflexus (AMARE); assay: Pre-emergence Test (glasshouse, percentage damage to the plant); conditions: 1000 g/ha unless otherwise stated; for percentage damage to the plant, AMARE: five-point scale; for percentage damage to the plant, AMARE (five-point scale): Amaranthus retoflexus
[7] = tested on: Setaria faberi (SETFA); assay: as above; conditions: 1000 g/ha unless otherwise stated; for percentage damage to the plant, SETFA: five-point scale; for percentage damage to the plant, SETFA (five-point scale): Setaria faberi
[8] = tested on: Lolium perenne (LOLPE); assay: as above; conditions: 1000 g/ha unless otherwise stated, five-point scale
[9] = tested on: Echinochloa crus-galli (ECHCG); assay: as above; conditions: 1000 g/ha unless otherwise stated; for percentage damage to the plant, ECHCG: five-point scale; for percentage damage to the plant, ECHCG (five-point scale): Echinochloa crus-galli
[10] = tested on: Ipomoea hederacea (IPOHE); assay: as above; conditions: 1000 g/ha unless otherwise stated; for percentage damage to the plant, IPOHE: five-point scale; for percentage damage to the plant, IPOHE (five-point scale): Ipomoea hederacea
[11] = tested on: Amaranthus palmeri (AMAPA); assay: Post-emergence Test (glasshouse, percentage damage to the plant); conditions: post-emergence; 1000 g/ha unless otherwise stated; evaluated after 13 days
Outline: as §1

[12] = tested on: Zea mays (ZEAMX); assay: as above; conditions: post-emergence; 1000 g/ha unless otherwise stated; evaluated after 13 days
Outline: as §2

[13] = tested on: Zea mays (ZEAMX); assay: Pre-emergence Test (glasshouse, percentage damage to the plant); conditions: 1000 g/ha unless otherwise stated, Zea mays
[14] = tested on: Amaranthus palmeri (AMAPA); assay: as above; conditions: 1000 g/ha unless otherwise stated, Amaranthus palmeri

Row | SMILES | Post-emergence Test AMARE, percentage damage to the plant (five-point scale) [1] | Post-emergence Test ECHCG, percentage damage to the plant (five-point scale) [2] | Post-emergence Test IPOHE, percentage damage to the plant (five-point scale) [3] | Post-emergence Test LOLPE, percentage damage to the plant (five-point scale) [4] | Post-emergence Test SETFA, percentage damage to the plant (five-point scale) [5] | percentage damage to the plant, AMARE [6] | percentage damage to the plant, SETFA [7] | percentage damage to the plant, LOLPE [8] | AMAPA, percentage damage caused to the plant (five-point scale) [11] | AMARE, percentage damage caused to the plant (five-point scale) [1] | ECHCG, percentage damage caused to the plant (five-point scale) [2] | IPOHE, percentage damage caused to the plant (five-point scale) [3] | SETFA, percentage damage caused to the plant (five-point scale) [5] | ZEAMX, percentage damage caused to the plant (five-point scale) [12] | percentage damage to the plant, AMARE (five-point scale) [6] | percentage damage to the plant, SETFA (five-point scale) [7] | percentage damage to the plant, ECHCG (five-point scale) [9] | percentage damage to the plant, IPOHE (five-point scale) [10] | percentage damage to the plant, ZEAMX (five-point scale) [13] | percentage damage to the plant, AMAPA (five-point scale) [14] | further results
1 | CCn1c(C)c(-c2ccc(Cl)cc2)c(=O)c(C(=O)NN(C)C)c1-c1ccc(Cl)c(Cl)c1 [Compound 2, 5-(4-chlorophenyl)-2-(3,4-dichlorophenyl)-1-ethyl-N′,N′,6-trimethyl-4-oxo-pyridine-3-carbohydrazide] | 3 (3=41-60%) | 2 (2=21-40%) | 2 (2=21-40%) | 1 (1=0-20%) | 4 (4=61-80%) | 3 (3=41-60%) | 1 (1=0-20%) | 1 (1=0-20%) | – | – | – | – | – | – | – | – | – | – | – | – | percentage damage to the plant, ECHCG [9]: 1 (1=0-20%)
2 | CCn1c(C)c(-c2ccc(F)cc2F)c(=O)c(C(=O)O)c1-c1ccc(Cl)c(Cl)c1 [Compound 3, 2-(3,4-dichlorophenyl)-5-(2,4-difluorophenyl)-1-ethyl-6-methyl-4-oxo-pyridine-3-carboxylic acid] | 5 (5=81-100%) | 5 (5=81-100%) | 4 (4=61-80%) | 4 (4=61-80%) | 5 (5=81-100%) | 5 (5=81-100%) | 5 (5=81-100%) | 3 (3=41-60%) | – | – | – | – | – | – | – | – | – | – | – | – | percentage damage to the plant, ECHCG [9]: 4 (4=61-80%); percentage damage to the plant, IPOHE [10]: 4 (4=61-80%)
3 | CCn1c(C)c(-c2ccc(F)cc2F)c(=O)c(C(=O)O)c1-c1ccc(-c2ccc(F)cc2F)c(Cl)c1 [Compound 4, 2-[3-chloro-4-(2,4-difluorophenyl)phenyl]-5-(2,4-difluorophenyl)-1-ethyl-6-methyl-4-oxo-pyridine-3-carboxylic acid] | 3 (3=41-60%) | 1 (1=0-20%) | 2 (2=21-40%) | 1 (1=0-20%) | 2 (2=21-40%) | 1 (1=0-20%) | 1 (1=0-20%) | 1 (1=0-20%) | – | – | – | – | – | – | – | – | – | – | – | – | percentage damage to the plant, ECHCG [9]: 1 (1=0-20%); percentage damage to the plant, IPOHE [10]: 1 (1=0-20%)
4 | Cc1c(-c2ccc(F)cc2F)c(=O)c(C(=O)O)c(-c2ccc(Cl)c(Cl)c2)n1C [Compound 252, 2-(3,4-dichlorophenyl)-5-(2,4-difluorophenyl)-1,6-dimethyl-4-oxo-pyridine-3-carboxylic acid] | – | – | – | – | – | – | – | – | 5 (5=81-100%) | 4 (4=61-80%) | 5 (5=81-100%) | 2 (2=21-40%) | 4 (4=61-80%) | 2 (2=21-40%) | 3 (3=41-60%) | 4 (4=61-80%) | 5 (5=81-100%) | 3 (3=41-60%) | 0 | 5 (5=81-100%) | –
5 | Cc1c(-c2ccc(Cl)cc2F)c(=O)c(C(=O)O)c(-c2ccc(Cl)c(Cl)c2)n1C [Compound 253, 5-(4-chloro-2-fluoro-phenyl)-2-(3,4-dichlorophenyl)-1,6-dimethyl-4-oxo-pyridine-3-carboxylic acid] | – | – | – | – | – | – | – | – | 5 (5=81-100%) | 5 (5=81-100%) | 5 (5=81-100%) | 3 (3=41-60%) | 5 (5=81-100%) | 3 (3=41-60%) | 5 (5=81-100%) | 5 (5=81-100%) | 5 (5=81-100%) | 4 (4=61-80%) | 1 (1=0-20%) | 5 (5=81-100%) | –
6 | CCn1c(C)c(-c2ccc(Cl)cc2)c(=O)c(C(=O)O)c1-c1ccc(F)c(Cl)c1 [Compound 258, 2-(3-chloro-4-fluoro-phenyl)-5-(4-chlorophenyl)-1-ethyl-6-methyl-4-oxo-pyridine-3-carboxylic acid] | – | – | – | – | – | – | – | – | 5 (5=81-100%) | 4 (4=61-80%) | 5 (5=81-100%) | 3 (3=41-60%) | 5 (5=81-100%) | 5 (5=81-100%) | 5 (5=81-100%) | 5 (5=81-100%) | 5 (5=81-100%) | 1 (1=0-20%) | 1 (1=0-20%) | 5 (5=81-100%) | –
7 | CCn1c(C)c(-c2cc(OC(C)C)c(Cl)cc2F)c(=O)c(C(=O)O)c1-c1ccc(F)c(F)c1 [Compound 260, 5-(4-chloro-2-fluoro-5-isopropoxy-phenyl)-2-(3,4-difluorophenyl)-1-ethyl-6-methyl-4-oxo-pyridine-3-carboxylic acid] | – | – | – | – | – | – | – | – | 4 (4=61-80%) | 4 (4=61-80%) | 4 (4=61-80%) | 3 (3=41-60%) | 4 (4=61-80%) | 3 (3=41-60%) | 4 (4=61-80%) | 4 (4=61-80%) | 5 (5=81-100%) | 3 (3=41-60%) | 1 (1=0-20%) | 4 (4=61-80%) | –
8 | CCn1c(C)c(-c2cc(OCCOC)c(Cl)cc2F)c(=O)c(C(=O)O)c1-c1ccc(F)c(F)c1 [Compound 261, 5-[4-chloro-2-fluoro-5-(2-methoxyethoxy)phenyl]-2-(3,4-difluorophenyl)-1-ethyl-6-methyl-4-oxo-pyridine-3-carboxylic acid] | – | – | – | – | – | – | – | – | 4 (4=61-80%) | 5 (5=81-100%) | 4 (4=61-80%) | 2 (2=21-40%) | 4 (4=61-80%) | 3 (3=41-60%) | 4 (4=61-80%) | 4 (4=61-80%) | 4 (4=61-80%) | 4 (4=61-80%) | 1 (1=0-20%) | 5 (5=81-100%) | –
9 | CCn1c(C)c(-c2cc(OCC3CC3)c(Cl)cc2F)c(=O)c(C(=O)O)c1-c1ccc(F)c(F)c1 [Compound 262, 5-[4-chloro-5-(cyclopropylmethoxy)-2-fluoro-phenyl]-2-(3,4-difluorophenyl)-1-ethyl-6-methyl-4-oxo-pyridine-3-carboxylic acid] | – | – | – | – | – | – | – | – | 5 (5=81-100%) | 5 (5=81-100%) | 4 (4=61-80%) | 2 (2=21-40%) | 5 (5=81-100%) | 4 (4=61-80%) | 5 (5=81-100%) | 5 (5=81-100%) | 5 (5=81-100%) | 3 (3=41-60%) | 2 (2=21-40%) | 5 (5=81-100%) | –
